Columns and labels:
Assay type in all cases: in vivo
Setaria faberi (SETFA) [1] = assay: Pre-emergence herbicidal test; settings: 1000 g/ha, evaluated after 13 days
[2] = tested on: Amaranthus retoflexus (AMARE); assay: Pre-emergence herbicidal test; settings: 1000 g/ha, evaluated after 13 days
[3] = tested on: Amaranthus retoflexus (AMARE); assay: Post-emergence herbicidal test; settings: 1000 g/ha unless otherwise stated, evaluated after 13 days
Summary of the method: (§1)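 Spray treatment, 1000 g/ha unless noted; vehicle acetone/water (50:50), 0.5% Tween 20. Glasshouse 24/16° C., 14 h light, 65% humidity. Percent injury rated at 13 d, banded 0–5.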

[4] = tested on: Ipomoea hederacea (IPOHE); assay: Post-emergence herbicidal test; settings: 1000 g/ha unless otherwise stated, evaluated after 13 days
Summary of the method: as §1

[5] = tested on: Abutilon theophrasti (ABUTH); assay: Post-emergence herbicidal test; settings: 1000 g/ha unless otherwise stated, evaluated after 13 days
Summary of the method: as §1

[6] = tested on: Echinochloa crus-galli (ECHCG); assay: Post-emergence herbicidal test; settings: 1000 g/ha unless otherwise stated, evaluated after 13 days
Summary of the method: as §1

Setaria faberi (SETFA) [7] = assay: Post-emergence herbicidal test; settings: 1000 g/ha unless otherwise stated, evaluated after 13 days
Summary of the method: as §1

Zea mays (ZEAMX) [8] = assay: Post-emergence herbicidal test; settings: 1000 g/ha unless otherwise stated, evaluated after 13 days
Summary of the method: as §1

[9] = tested on: Abutilon theophrasti (ABUTH); assay: Pre-emergence herbicidal test; settings: 1000 g/ha, evaluated after 13 days
[10] = tested on: Echinochloa crus-galli (ECHCG); assay: Pre-emergence herbicidal test; settings: 1000 g/ha, evaluated after 13 days
[11] = tested on: Ipomoea hederacea (IPOHE); assay: Pre-emergence herbicidal test; settings: 1000 g/ha, evaluated after 13 days
Zea mays (ZEAMX) [12] = assay: Pre-emergence herbicidal test; settings: 1000 g/ha, evaluated after 13 days

Compound | percentage damage caused to the plant, five-point scale, SETFA (Setaria faberi (SETFA) [1]) | percentage damage caused to the plant, five-point scale, AMARE [2] | percentage damage caused to the plant, AMARE (five-point scale) [3] | percentage damage caused to the plant, IPOHE (five-point scale) [4] | percentage damage caused to the plant, ABUTH (five-point scale) [5] | percentage damage caused to the plant, ECHCG (five-point scale) [6] | percentage damage caused to the plant, SETFA (five-point scale) (Setaria faberi (SETFA) [7]) | percentage damage caused to the plant, ZEAMX (five-point scale) (Zea mays (ZEAMX) [8]) | percentage damage caused to the plant, five-point scale, ABUTH [9] | percentage damage caused to the plant, five-point scale, ECHCG [10] | percentage damage caused to the plant, five-point scale, IPOHE [11] | percentage damage caused to the plant, five-point scale, ZEAMX (Zea mays (ZEAMX) [12])
O=C(O)c1nn(-c2ccc(OC(F)(F)F)cc2)c2cccc([S+]([O-])C3CC3)c2c1=O (stereo not drawn) [Compound P31, 5-cyclopropylsulfinyl-4-oxo-1-[4-(trifluoromethoxy)phenyl]cinnoline-3-carboxylic acid] | 0 (0=0%) | 0 (0=0%) | 0 (0=0%) | 0 (0=0%) | 0 (0=0%) | 0 (0=0%) | 0 (0=0%) | 0 (0=0%) | 0 (0=0%) | 0 (0=0%) | 0 (0=0%) | 0 (0=0%)
CC(C)COC(=O)c1nn(-c2ccc(OC(F)(F)F)cc2)c2cccc(S(C)(=O)=O)c2c1=O [Compound P72, isobutyl 5-methylsulfonyl-4-oxo-1-[4-(trifluoromethoxy)phenyl]cinnoline-3-carboxylate] | 4 (4=61-80%) | 0 (0=0%) | 0 (0=0%) | 1 (1=10-20%) | 0 (0=0%) | 3 (3=41-60%) | 4 (4=61-80%) | 1 (1=10-20%) | 0 (0=0%) | 4 (4=61-80%) | 0 (0=0%) | 0 (0=0%)
CC(C)Cc1ccc2c(c1S(C)(=O)=O)c(=O)c(C(=O)O)nn2-c1ccc(OC(F)(F)F)cc1 [Compound P15, 6-isobutyl-5-methylsulfonyl-4-oxo-1-[4-(trifluoromethoxy)phenyl]cinnoline-3-carboxylic acid] | 1 (1=10-20%) | 1 (1=10-20%) | 1 (1=10-20%) | 0 (0=0%) | 1 (1=10-20%) | 1 (1=10-20%) | 1 (1=10-20%) | 1 (1=10-20%) | 1 (1=10-20%) | 1 (1=10-20%) | 0 (0=0%) | 0 (0=0%)
C#CCCCOC(=O)c1nn(-c2ccc(OC(F)(F)F)cc2)c2cccc(S(C)(=O)=O)c2c1=O [Compound P62, pent-4-ynyl 5-methylsulfonyl-4-oxo-1-[4-(trifluoromethoxy)phenyl]cinnoline-3-carboxylate] | 5 (5=81-100%) | 0 (0=0%) | 0 (0=0%) | 0 (0=0%) | 0 (0=0%) | 3 (3=41-60%) | 4 (4=61-80%) | 1 (1=10-20%) | 0 (0=0%) | 4 (4=61-80%) | 0 (0=0%) | 0 (0=0%)
CCOC(=O)c1nn(-c2ccc(OC(F)(F)F)cc2)c2ccc(C)c(S(C)(=O)=O)c2c1=O [Compound P8, ethyl 6-methyl-5-methylsulfonyl-4-oxo-1-[4-(trifluoromethoxy)phenyl]cinnoline-3-carboxylic acid] | 4 (4=61-80%) | 1 (1=10-20%) | 1 (1=10-20%) | 1 (1=10-20%) | 1 (1=10-20%) | 4 (4=61-80%) | 4 (4=61-80%) | 1 (1=10-20%) | 1 (1=10-20%) | 3 (3=41-60%) | 1 (1=10-20%) | 1 (1=10-20%)
O=C(O)c1nn(-c2ccc(OC(F)(F)F)cc2)c2cccc(S(=O)(=O)C3CC3)c2c1=O [Compound P29, 5-cyclopropylsulfonyl-4-oxo-1-[4-(trifluoromethoxy)phenyl]cinnoline-3-carboxylic acid] | 0 (0=0%) | 0 (0=0%) | 0 (0=0%) | 0 (0=0%) | 0 (0=0%) | 0 (0=0%) | 0 (0=0%) | 0 (0=0%) | 0 (0=0%) | 0 (0=0%) | 0 (0=0%) | 0 (0=0%)
COC(=O)COC(=O)c1nn(-c2ccc(OC(F)(F)F)cc2)c2cccc(S(C)(=O)=O)c2c1=O [Compound P81, (2-methoxy-2-oxo-ethyl) 5-methylsulfonyl-4-oxo-1-[4-(trifluoromethoxy)phenyl]cinnoline-3-carboxylate] | 5 (5=81-100%) | 0 (0=0%) | 1 (1=10-20%) | 0 (0=0%) | 1 (1=10-20%) | 3 (3=41-60%) | 4 (4=61-80%) | 1 (1=10-20%) | 0 (0=0%) | 4 (4=61-80%) | 0 (0=0%) | 0 (0=0%)
COCCCOC(=O)c1nn(-c2ccc(OC(F)(F)F)cc2)c2cccc(S(C)(=O)=O)c2c1=O [Compound P69, 3-methoxypropyl 5-methylsulfonyl-4-oxo-1-[4-(trifluoromethoxy)phenyl]cinnoline-3-carboxylate] | 4 (4=61-80%) | 0 (0=0%) | 0 (0=0%) | 1 (1=10-20%) | 1 (1=10-20%) | 3 (3=41-60%) | 4 (4=61-80%) | 2 (2=21-40%) | 0 (0=0%) | 4 (4=61-80%) | 0 (0=0%) | 0 (0=0%)
